US20230257716A1 (priority 2020, published 2023)
“Also recorded” adds a separate entry of the source.

Experiments:
[1] = tested on: human distal lung organoids; test: Screening exogenous growth factors in distal lung organoid culture; type: cell-based; conditions: single cell suspensions of distal lung, feeder-free; EGF and NOGGIN in combination
Source text: (§1) Screening exogenous growth factors in organoid culture.

basal organoids = test: Growth factor evaluation for basal organoids after sedimentation and clonogenic culture; type: cell-based, human; parameters: basal organoid growth: dose or concentration left out as unconfirmed
Source text: as §1
Density sedimentation of basal cells. Organoid cultures within 2-3 weeks of primary plating were dissociated with 1 U/ml neutral protease (Worthington, Cat LS02100) and 100 KU of DNase I in organoid media. Basal organoids were then collected by gravity sedimentation and the supernatant was either aspirated or collected for downstream use. Basal organoids were then further fractionated on a custom Ficoll-Paque gradient (4 vol Ficoll-Paque to 1 vol PBS) and centrifuged at 300×g for 10 minutes at room temperature. The supernatant was aspirated and the organoid pellet was resuspended in 10 ml PBS in a 15 ml conical tube, collected by gravity sedimentation, and plated into ECM as described above.

AT2 organoids = test: AT2 organoid proliferation with niche factors and PORCUPINE inhibitor
Method: Screening exogenous growth factors in organoid culture. Distal airway cells were isolated and plated as above with the following exceptions: ADMEM/F12 was used instead of organoid medium during elastase digestion of lung tissue, cells were serially diluted and filtered through a 40 micron cell strainer and counted with a hemocytometer. 1000 viable epithelial cells (by Trypan blue exclusion, size, and morphology) per μL ECM were plated per 5 μL Matrigel droplet per well. Base media consisted of organoid media lacking A83-01, EGF, NOGGIN, WNT3A or RSPO1. EGF (final 50 ng/ml, R&D), NOGGIN (final 100 ng/ml, R&D), WNT3A (final 100 ng/ml, R&D), RSPO1 (final 500 ng/ml, Peprotech) or the PORCUPINE inhibitor C59 (final 1μM, Biogems) were added singly or in combination to base media. Images were obtained ten days after primary plating with an inverted light microscope at 5X magnification. Each condition was plated in quadruplicate and organoid formation was quantified using the analyze particle (threshold=4902 pixels) plugin in ImageJ as previously described.

TNFRSF12A^hi basal cells [2] = conditions: basal organoids from FACS-purified TNFRSF12A^hi EPCAM+ITGA6+ITGB4+ cells, 14 days culture
Method: NOTCH manipulation in TNFRSF12A^hi basal cells. TNFRSF12A^hi basal cells were isolated and cultured as above. 24 hours after plating, media was changed to lung organoid media with either vehicle (0.1% DMSO), 1 μg/ml JAG1 peptide (Anaspec), 500 nM soluble recombinant NOTCH receptor inhibitor Delta Like Ligand 4 mutant (DLL4E12), or 1 μM gamma secretase inhibitor DBZ (Tocris). After 14 days of culture, biochemical estimation of proliferation was carried out by resazurin reduction assay (Alamar Blue, Thermo Fisher) for 16 hours according to manufacturer's protocol and resazurin reduction was measured via fluorescence readout on a Biotek Synergy H1 plate reader according to the manufacturer's protocol. Reference blank consisted of Alamar Blue reagent incubated in parallel media without cells.

TNFRSF12A^hi basal cells [3] = conditions: NOTCH inhibition
Method: Quantitation of SCGB1A1 and SFTPC mRNA expression in TNFRSF12A^hi basal cells. FACS-isolated basal cells cultured in the above conditions were fixed in 2% paraformaldehyde in PBS for one hour at room temperature, embedded in HistoGel (Thermo Fisher HG-4000-012), dehydrated and paraffin embedded en bloc. One hundred serial sections were obtained at 10 micron thickness, and immunocytochemistry and in situ hybridization were performed at each 100 micron level. Confocal images were acquired in a blinded manner and organoids were defined as a cluster of 3 or greater DAPI nuclei. Channels were acquired using identical parameters for DAPI, Alexa 488 (SFTPC RNA in situ hybridization), Texas Red (SCGB1A1 RNA in situ hybridization), and Alexa 647 (KRTS immunostaining). Z-stacks were collected and images were processed in ImageJ and maximum intensity Z projections were used to quantitate SCGB1A1 and SFTPC RNA in situ in Cell Profiler using the RNA Proximity Ligase Assay counting pipeline.

[4] = tested on: PR8 strain of H1N1 modified to express GFP; test: microbe, parasite or virus in culture; type: cell-based, influenza H1N1 (in human distal lung organoids)

In the case of “EGF: recombinant human EGF (R&D Systems)”, the “distal lung organoid growth with exogenous growth factors” value [1] is reported as “optimal”, the “basal organoid growth with exogenous growth factors” value (basal organoids; pure basal cell cultures, EGF and Noggin together) is reported as “sufficient for maximal growth” and the “clonal AT2 organoid proliferation with exogenous growth factors” value (AT2 organoids; EGF and NOGGIN together, WNT-3A and RSPONDIN-1 added exogenously) is reported as “sufficient for clonal AT2 organoid proliferation”.
`C[C@H](NC(=O)Cc1cc(F)cc(F)c1)C(=O)N[C@@H]1C(=O)N(C)c2ccccc2-c2ccccc21` [DBZ] was tested, and the “proliferation (resazurin dye reduction)” value (TNFRSF12A^hi basal cells [2]) was “significantly increased proliferation” and the “SFTPC mRNA expression” value (TNFRSF12A^hi basal cells [3]) was “upregulating SFTPC mRNA”.
With `CC(=O)N[C@H]1[C@H]([C@H](O)[C@H](O)CO)OC(C(=O)O)=C[C@@H]1N=C(N)N` [zanamivir] the “IC50 on influenza infectivity and replication (dose response curve)” value [4] was “did not exhibit a dose response curve” and the “inhibition of H1N1 viral infection or replication (GFP attenuation)” value [4] was “did not inhibit H1N1 viral infection or replication”.
In the case of `Cc1cc(-c2ccc(CC(=O)Nc3ccc(-c4cccnc4)cc3)cc2)ccn1` [C59, reference compound], the basal organoid growth (basal organoids; after d14 sedimentation, clonogenic culture, C59) is reported as “growth was not significantly inhibited; also recorded: Growth was not affected” and the AT2 organoid growth (AT2 organoids; PORCUPINE inhibitor C59 (1 μM)) is reported as “attenuated AT2 organoid growth”.
In the case of `Nc1ccn([C@@H]2O[C@H](CO)[C@@H](O)[C@H]2F)c(=O)n1` [FdC, 2′-deoxy-2′-fluorocytidine], the “inhibition of H1N1 viral infection or replication (GFP attenuation)” value [4] is reported as “efficacious with EC50 consistent with previous reports” and the IC50 ([4]; Influenza A virus, read-out: IC50 on influenza infectivity and replication (dose response curve)) is reported as 340 nM.
